Results on ten compounds are retold here after ChEMBL document CHEMBL2311427, “Bioactive barrigenol type triterpenoids from the leaves of Xanthoceras sorbifolia Bunge” (Eur J Med Chem, 2013).

A value given as a limit tells only on which side of the number the result lay.

Holding throughout (format): functional, cell-based
In one assay the test system is HepG2. The assay can be described thus: Antitumor activity against human HepG2 cells assessed as growth inhibition measured after 48 hrs by MTT assay. The conditions noted are these: HepG2, 48 h. Background: Formazan colour is commonly taken as a measure of viable cells.
A further assay relates to MCF7. The experiment in a line: Antitumor activity against human MCF7 cells assessed as growth inhibition measured after 48 hrs by MTT assay. The conditions noted are these: MCF7, 48 h.
A further assay has as its system HeLa. The assay can be described thus: Antitumor activity against human HeLa cells assessed as growth inhibition measured after 48 hrs by MTT assay.

A word on the IC50: it is the concentration that inhibits the measured activity by half. `C[C@@H]1O[C@@H](O[C@H]2[C@H](OC[C@@]34CC[C@]5(C)C(=CC[C@@H]6[C@@]7(C)CC[C@H](O[C@@H]8O[C@H](CO[C@@H]9O[C@H](CO)[C@@H](O)[C@H](O)[C@H]9O)[C@@H](O)[C@H](O)[C@H]8O)C(C)(C)[C@@H]7CC[C@]65C)[C@@H]3CC(C)(C)[C@@H](O)[C@@H]4O)O[C@H](CO)[C@@H](O)[C@@H]2O)[C@H](O)[C@H](O)[C@H]1O`: the results for the IC50 in the assay on HepG2, with MCF7 and in the assay on HeLa were 31.5 µM, 25.4 µM and 18.8 µM, respectively.
On to `C/C=C(/C)C(=O)O[C@@H]1[C@@H](O)[C@H](O[C@H]2CC[C@]3(C)[C@H]4CC=C5[C@@H]6CC(C)(C)[C@@H](O)[C@H](O)[C@]6(CO[C@@H]6O[C@H](CO[C@@H]7O[C@H](CO)[C@@H](O)[C@H](O)[C@H]7O)[C@@H](O)[C@H](O)[C@H]6O[C@@H]6O[C@@H](C)[C@H](O)[C@@H](O)[C@H]6O)CC[C@@]5(C)[C@]4(C)CC[C@H]3C2(C)C)O[C@H](CO[C@@H]2O[C@H](CO)[C@@H](O)[C@H](O)[C@H]2O)[C@H]1O`, for which the half-inhibitory concentration (IC50) in the assay on HepG2, in the assay with MCF7 and in the assay on HeLa was above 100 µM in each case.
For `C/C=C(/C)C(=O)O[C@H]1[C@H](OC(=O)/C(C)=C\C)[C@]2(CO)[C@H](O)[C@H](O)[C@]3(C)C(=CC[C@@H]4[C@@]5(C)CC[C@H](O[C@@H]6O[C@H](C(=O)OC)[C@@H](O)[C@H](O)[C@H]6O[C@@H]6O[C@H](CO)[C@@H](O)[C@H](O)[C@H]6O)C(C)(C)[C@@H]5CC[C@]43C)[C@@H]2CC1(C)C`, the IC50 is 43.7 µM in the assay with HepG2, above 100 µM in the assay on MCF7 and 81.6 µM with HeLa.
With `C/C=C(/C)C(=O)O[C@H]1[C@H](OC(=O)/C(C)=C\C)[C@]2(CO)[C@H](O)[C@H](O)[C@]3(C)C(=CC[C@@H]4[C@@]5(C)CC[C@H](O[C@@H]6O[C@H](CO[C@@H]7O[C@H](CO)[C@@H](O)[C@H](O)[C@H]7O)[C@@H](O)[C@H](O)[C@H]6O[C@@H]6O[C@@H](CO)[C@H](O)[C@H]6O)C(C)(C)[C@@H]5CC[C@]43C)[C@@H]2CC1(C)C`, the results for the 50% inhibitory concentration (IC50) with HepG2, in the assay with MCF7 and with HeLa were 9.21 µM, 9.62 µM and 7.56 µM, respectively.
Turning to `C/C=C(/C)C(=O)O[C@H]1[C@H](O[C@H]2CC[C@]3(C)[C@H]4CC=C5[C@@H]6CC(C)(C)[C@@H](O)[C@H](O)[C@]6(CO[C@@H]6O[C@H](CO[C@@H]7O[C@H](CO)[C@@H](O)[C@H](O)[C@H]7O)[C@@H](O)[C@H](O)[C@H]6O[C@@H]6O[C@@H](C)[C@H](O)[C@@H](O)[C@H]6O)CC[C@@]5(C)[C@]4(C)CC[C@H]3C2(C)C)O[C@H](CO[C@@H]2O[C@H](CO)[C@@H](O)[C@H](O)[C@H]2O)[C@@H](O)[C@@H]1O`, the half-inhibitory concentration (IC50) with HepG2, with MCF7 and with HeLa was above 100 µM each time.
Turning to `COc1cc([C@@H]2c3cc4c(cc3[C@@H](O[C@@H]3O[C@@H]5CO[C@@H](C)O[C@H]5[C@H](O)[C@H]3O)[C@H]3COC(=O)[C@H]23)OCO4)cc(OC)c1O` [ETOPOSIDE], the 50% inhibitory concentration (IC50) turned out to be 9.14 µM in the assay on HepG2, 59.8 µM in the assay on MCF7 and 8.32 µM with HeLa.
In the case of `O=c1[nH]cc(F)c(=O)[nH]1` [FLUOROURACIL], the half-inhibitory concentration (IC50) with HepG2 is above 100 µM; in the assay on MCF7 it was above 100 µM; in the assay on HeLa it was 14.8 µM.
Turning to `CC(=O)O[C@H]1C(=O)[C@@]2(C)[C@H]([C@H](OC(=O)c3ccccc3)[C@]3(O)C[C@H](OC(=O)[C@H](O)[C@@H](NC(=O)c4ccccc4)c4ccccc4)C(C)=C1C3(C)C)[C@]1(OC(C)=O)CO[C@@H]1C[C@@H]2O` [PACLITAXEL], the IC50 with HepG2 worked out at 61.8 µM; with MCF7, 77.2 µM.
Take `Oc1ccc(/C=C/c2cc(O)cc(O)c2)cc1` [RESVERATROL]: the concentration for half-maximal inhibition (IC50) in the assay on HepG2 is above 100 µM; in the assay with MCF7, above 100 µM; in the assay with HeLa it was 58.9 µM.
Regarding `C[C@@H]1O[C@@H](O[C@H]2[C@H](OC[C@@]34CC[C@]5(C)C(=CC[C@@H]6[C@@]7(C)CC[C@H](O[C@@H]8O[C@H](CO[C@@H]9O[C@H](CO)[C@@H](O)[C@H](O)[C@H]9O)[C@@H](O)[C@H](O)[C@H]8O)C(C)(C)[C@@H]7CC[C@]65C)[C@@H]3CC(C)(C)[C@@H](O)[C@@H]4O)O[C@H](CO[C@@H]3O[C@H](CO)[C@@H](O)[C@H](O)[C@H]3O)[C@@H](O)[C@@H]2O)[C@H](O)[C@H](O)[C@H]1O` [XANIFOLIA O54], the half-maximal inhibitory concentration (IC50) in the assay with HepG2 turned out to be 7.25 µM; in the assay with MCF7, 7.29 µM; with HeLa, 3.98 µM.
